Data taken from patent US9302999B2, “Substituted triazoles as herbicides” (E. I. DU PONT DE NEMOURS AND COMPANY, priority 2012, dated 2016).

Experiments:
[1] = tested on: nutsedge, yellow (yellow nutsedge, Cyperus esculentus); assay: Test C pre-/postemergence: nutsedge, yellow; assay type: in vivo
Procedure, shortened: (§1)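 Preemergence on seeds in loam/sand, postemergence on 2–18 cm (1–4-leaf) plants in peat-based medium; compounds in non-phytotoxic solvent with surfactant. After 13–15 days in greenhouse, visual rating versus controls, 0 (no effect) to 100 (complete control).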

[2] = tested on: ducksalad (Heteranthera limosa); assay: Test B flooded paddy: ducksalad; assay type: in vivo; conditions: Flood; 250 g ai/ha; applied to paddy water at 2-leaf stage; visually evaluated after 13 to 15 days
Procedure, shortened: (§2)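 Paddy-water application: seedlings at 2-leaf stage, flood depth 3 cm maintained for the test duration. Evaluation after 13–15 days in the greenhouse by eye relative to controls; 0–100 scale.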

[3] = tested on: crabgrass, large (large crabgrass, Digitaria sanguinalis); assay: Test A pre-/postemergence: crabgrass, large; assay type: in vivo
Procedure, shortened: (§3)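 Visual 0–100 injury ratings (0 no effect, 100 complete control) taken about ten days after treatment, relative to untreated controls. Preemergence treatment was a directed soil spray; postemergence plants were 2–10 cm tall at one- to two-leaf stage. Soil: loam/sand blend.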

[4] = tested on: morningglory (Ipomoea spp.); assay: Test A pre-/postemergence: morningglory; assay type: in vivo
Procedure, shortened: as §3

[5] = tested on: sedge, umbrella (small-flower umbrella sedge Cyperus difformis); assay: Test B flooded paddy: sedge, umbrella; assay type: in vivo; conditions: Flood; 250 g ai/ha; applied to paddy water at 2-leaf stage; visually evaluated after 13 to 15 days
Procedure, shortened: as §2

[6] = tested on: velvetleaf (Abutilon theophrasti); assay: Test C pre-/postemergence: velvetleaf; assay type: in vivo
Procedure, shortened: as §1

soybean (Glycine max) = assay: Test C pre-/postemergence: soybean; assay type: in vivo
Procedure, shortened: as §1

Barnyardgrass = assay: Test C preemergence: barnyardgrass; assay type: in vivo, Echinochloa crus-galli
Source text: Seeds of plant species selected from blackgrass (Alopecurus myosuroides), bromegrass, downy (downy bromegrass, Bromus tectorum), foxtail, green (green foxtail, Setaria viridis), ryegrass, Italian (Italian ryegrass, Lolium multiflorum), winter wheat (Triticum aestivum), wild oat (Avena fatua), galium (catchweed bedstraw, Galium aparine), bermudagrass (Cynodon dactylon), surinam grass (Brachiaria decumbens), cocklebur (common cocklebur, Xanthium strumarium), corn (Zea mays), large crabgrass (Digitaria sanguinalis), woolly cupgrass (Eriochloa villosa), foxtail, giant (giant foxtail, Setaria faberii), goosegrass (Eleusine indica), johnsongrass (Sorghum halepense), kochia (Kochia scoparia), lambsquarters (Chenopodium album), morningglory (Ipomoea coccinea), nightshade (eastern black nightshade, Solanum ptycanthum), nutsedge, yellow (yellow nutsedge, Cyperus esculentus), pigweed (Amaranthus retroflexus), ragweed (common ragweed, Ambrosia elation), soybean (Glycine max), common (oilseed) sunflower (Helianthus annuus), Russian thistle (Salsola kali) and velvetleaf (Abutilon theophrasti) were planted into a blend of loam soil and sand and treated preemergence with test chemicals formulated in a non-phytotoxic solvent mixture which included a surfactant.
Treated plants and controls were maintained in a greenhouse for 13 to 15 days, after which time all species were compared to controls and visually evaluated. Plant response ratings, summarized in Table C, are based on a scale of 0 to 100 where 0 is no effect and 100 is complete control. A dash (-) response means no test result.

kochia (Kochia scoparia) = assay: Test C pre-/postemergence: kochia; assay type: in vivo; conditions: Postemergence
Procedure, shortened: as §1

[7] = tested on: ragweed (common ragweed, Ambrosia elation); assay: Test C pre-/postemergence: ragweed; assay type: in vivo
Procedure, shortened: as §1

[8] = tested on: foxtail, giant (giant foxtail, Setaria faberii); assay: Test A pre-/postemergence: foxtail, giant; assay type: in vivo
Procedure, shortened: as §3

[9] = Postemergence, 31 g ai/ha, scale 0 to 100 (0 no effect, 100 complete control)
[10] = Postemergence, 62 g ai/ha, scale 0 to 100 (0 no effect, 100 complete control)
[11] = Postemergence, 125 g ai/ha, scale 0 to 100, 0 no effect, 100 complete control
[12] = Postemergence, 250 g ai/ha, scale 0 to 100
[13] = Preemergence, 31 g ai/ha, scale of 0 to 100, 0 is no effect, 100 is complete control
[14] = Postemergence, 125 g ai/ha, 0 to 100 scale, 0 is no effect, 100 is complete control
[15] = Postemergence, 500 g ai/ha, visual rating on 0 to 100 scale (0 no effect, 100 complete control), approximately ten days
[16] = Preemergence, 125 g ai/ha, 0 to 100 scale where 0 is no effect and 100 is complete control
[17] = Preemergence, 500 g ai/ha, 0 to 100 scale (0 no effect, 100 complete control)
[18] = Preemergence, 62 g ai/ha, scale of 0 to 100, 0 is no effect, 100 is complete control
[19] = Preemergence, 125 g ai/ha, scale 0 to 100, 0 no effect, 100 complete control
[20] = Preemergence, 250 g ai/ha, scale 0 to 100, 0 no effect, 100 complete control
[21] = 125 g ai/ha, scale 0 to 100, 0 no effect, 100 complete control

For `CCc1nn(-c2ccc(F)cc2)nc1Cc1ccnc(C(F)(F)F)c1` [Compound 154], the “Plant response rating, Nutsedge, Yellow” value [1, 9] was 10, the “Plant response rating, Nutsedge, Yellow” value [1, 10] was 10 and the “Plant response rating, Nutsedge, Yellow” value [1, 11] was 15. For the same compound, the “Plant response rating, Nutsedge, Yellow” value [1, 12] was 15, the “Plant response rating, Nutsedge, Yellow” value [1, 13] was 0 and the “Plant response rating, Ducksalad (0 to 100 scale, 0 is no effect, 100 is complete control)” value [2] was 80. The “Plant response rating, Crabgrass, Large” value [3, 14] was 100, the “Crabgrass, Large plant response rating” value [3, 15] was 100 and the “Plant response rating, Crabgrass, Large” value [3, 16] was 100. The “Plant response rating, Crabgrass, Large” value [3, 17] was 100, the “Plant response rating, Morningglory” value [4, 14] was 80 and the “Morningglory plant response rating” value [4, 15] was 100. The “Plant response rating, Morningglory” value [4, 16] was 20, the “Plant response rating, Morningglory” value [4, 17] was 80 and the “Plant response rating, Sedge, Umbrella (0 to 100 scale, 0 is no effect, 100 is complete control)” value [5] was 80. For the same compound, the “Plant response rating, Velvetleaf” value [6, 9] was 35, the “Plant response rating, Velvetleaf” value [6, 10] was 45 and the “Plant response rating, Velvetleaf” value [6, 11] was 55. The “Plant response rating, Velvetleaf” value [6, 12] was 65, the “Plant response rating, Velvetleaf” value [6, 13] was 5 and the “Plant response rating, Velvetleaf” value [6, 18] was 45. For the same compound, the “Plant response rating, Velvetleaf” value [6, 19] was 90, the “Plant response rating, Velvetleaf” value [6, 20] was 100 and the “Plant response rating, Soybean” value (soybean (Glycine max); [9]) was 45. The “Plant response rating, Soybean” value (soybean (Glycine max); [10]) was 60, the “Plant response rating, Soybean” value (soybean (Glycine max); [11]) was 65 and the “Plant response rating, Soybean” value (soybean (Glycine max); [12]) was 75. For the same compound, the “Plant response rating, Soybean” value (soybean (Glycine max); [13]) was 0, the “Plant response rating, Soybean” value (soybean (Glycine max); [18]) was 0 and the “Plant response rating, Soybean” value (soybean (Glycine max); [19]) was 15. For the same compound, the “Plant response rating, Soybean” value (soybean (Glycine max); [20]) was 15, the “Plant response rating, Barnyardgrass” value (Barnyardgrass; 31 g ai/ha, scale of 0 to 100, 0 is no effect, 100 is complete control) was 45 and the “Plant response rating, Barnyardgrass” value (Barnyardgrass; 62 g ai/ha, scale of 0 to 100, 0 is no effect, 100 is complete control) was 90. The “Plant response rating, Barnyardgrass” value (Barnyardgrass; [21]) was 90, the “Plant response rating, Kochia” value (kochia (Kochia scoparia); 31 g ai/ha, scale 0 to 100 (0 no effect, 100 complete control)) was 90 and the “Plant response rating, Kochia” value (kochia (Kochia scoparia); 62 g ai/ha, scale 0 to 100 (0 no effect, 100 complete control)) was 90. The “Plant response rating, Kochia” value (kochia (Kochia scoparia); [21]) was 90, the “Plant response rating, Kochia” value (kochia (Kochia scoparia); 250 g ai/ha, scale 0 to 100) was 95 and the “Plant response rating, Ragweed” value [7, 9] was 30. For the same compound, the “Plant response rating, Ragweed” value [7, 10] was 30, the “Plant response rating, Ragweed” value [7, 11] was 30 and the “Plant response rating, Ragweed” value [7, 12] was 40. The “Plant response rating, Ragweed” value [7, 13] was 0, the “Plant response rating, Ragweed” value [7, 18] was 0 and the “Plant response rating, Ragweed” value [7, 19] was 50. The “Plant response rating, Ragweed” value [7, 20] was 70, the “Plant response rating, Foxtail, Giant” value [8, 14] was 90 and the “Foxtail, Giant plant response rating” value [8, 15] was 100. For the same compound, the “Plant response rating, Foxtail, Giant” value [8, 16] was 100 and the “Plant response rating, Foxtail, Giant” value [8, 17] was 100.
